In PMC8602566 (Frontiers in Oncology, 2021):

What was measured:
[1] = tested on: Human colon carcinoma cell line SW-620; experiment: MTT cell viability assay, SW-620; format: cell-based; conditions: SW-620, MTT, 72 h, read-out: IC50 antiproliferative activity SW-620
Method: (§1) Cell viability was measured using the 3-(4,5-dimethylthiazol-2-yl)-2,5-diphenyltetrazolium bromide (MTT) assay and was expressed as a ratio to the absorbance value at 570 nm of the control cells.

[2] = tested on: Human glioblastoma cell line U251; experiment: MTT cell viability assay, U251; format: cell-based; conditions: U-251, MTT, 72 h, read-out: IC50 antiproliferative activity U251
Method: as §1

[3] = tested on: Human glioblastoma cell line U87; experiment: MTT cell viability assay, U87; format: cell-based; conditions: MTT, 72 h, read-out: IC50 antiproliferative activity U87
Method: Human GBM U87 cell line was purchased from the American Type Culture Collection (ATCC). Cells were cultured in Dulbecco’s modified Eagle’s medium (DMEM) supplemented with 10% fetal bovine serum (FBS) and maintained in a 37°C, 5% CO2 incubator. After cells were routinely passaged at 2- to 3-day intervals, experiments were carried out when the cells entered exponential growth phase.
as §1

[4] = tested on: Human glioma cell line LN229; experiment: MTT cell viability assay, LN229; format: cell-based; conditions: LN-229, MTT, 72 h, read-out: IC50 antiproliferative activity LN229
Method: as §1

[5] = tested on: acetylated histone H3 in U87 cells; experiment: Western blot analysis for H3-histone acetylation; format: cell-based, Human
Method: U87 cells (5 × 10^5 cells/ml) in six-well plates were incubated with DMC-HA and lysed in radioimmunoprecipitation assay (RIPA) buffer containing protease and phosphatase inhibitors. Protein contents in the lysates were determined by Bradford’s assay, and 50 μg was separated by SDS polyacrylamide gel electrophoresis (SDS-PAGE) electrophoresis. Proteins were transferred to membranes and probed with human anti-acetylated H3 and anti-β actin antibodies as a loading control. Membranes were then labeled with the appropriate horseradish peroxidase (HRP)-conjugated immunoglobulin G (IgG), and protein bands were visualized using enhanced chemiluminescence. (Bio-Rad, Hercules, CA, USA).
Next, DMC-HA-induced acetylation of histone H3 in living cells was analyzed using Western blot method.

[6] = tested on: U87 cells; experiment: Cell cycle analysis by flow cytometry; format: cell-based, Human; conditions: 2.5 μM, 36 h (control 4.6%)
Method: […] Cells were detached, fixed in 70% ethanol in PBS (−20°C) overnight and resuspended in PBS supplemented with 100 µg/ml RNase and 50 µg/ml PI for 30 min. Cell cycle analysis was performed on a flow cytometry (FACSCalibur BD, BD Biosciences, San Jose, CA, USA).
Inhibition of HDACs results in anticancer effect through various mechanisms, like cell cycle arrest, reduced proliferation, and induction of apoptosis ([30]). Thus, the cell cycle profile of the human GBM cell line U87 treated with DMC-HA was analyzed by using flow cytometry. […] Although in control cells, only 4.6% of cells were in G2/M phase, 14.5% of cells in G2/M phase were found after treatment with 2.5 μM DMC-HA.

[7] = tested on: U87 cells; experiment: Cell apoptosis assay by flow cytometry (Annexin V-FITC/PI); format: cell-based, Human; conditions: 10 μM, Annexin V/PI (control 3.3%)
Method: For apoptosis assays, 5 × 10^5 U87 cells were seeded into six-well plates for 24 h and treated with a range of concentrations of DMC-HA for 36 h. Annexin V-FITC/PI apoptosis detection kit was used to perform the apoptotic assay following the manufacturer’s instructions (Beyotime, Jiangsu, China). After treatment, 1 × 10^6 cells were washed using 1 ml binding buffer for three times, then centrifuged at 300×g and stained with 10 μl Annexin V-FITC solution at 37°C for 15 min. Before detecting, 5 μl PI solution was added to the samples, and the apoptotic cells were detected using flow cytometry (FACSCalibur BD, BD Biosciences, San Jose, CA, USA).
To further investigate the apoptotic effect of DMC-HA on GBM, we treated U87 cells with increasing concentrations of DMC-HA. After 48 h, the morphological changes of DMC-HA-treated U87 cells were observed, such as cell shrinking, rounding, and detachment (Figure 4A). […] To further confirm whether DMC-HA could induce apoptosis in U87 cells, cells were stained with Annexin V and PI after treatment with various concentrations of DMC-HA.

[8] = Hepatic microsome stability assay, human; format: in vitro ADME; conditions: human liver microsomes, NADPH, 37°C, pH 7.4
Method: (§2) Metabolic stability was assessed in the presence of human, mouse, and rat liver microsomes (XenoTech, Lenexa, KS, USA). All liquid dispenses and transfer steps were performed with the Freedom Evo automated liquid handler (Tecan US). Compound stock solutions were initially prepared in 100% DMSO and subsequently diluted in acetonitrile for the assay. The pH of the reactions was kept at 7.4 with potassium phosphate buffer. The reaction wells were prepared by adding microsomes to a well and allowed to warm to 37°C. Then, compound was added to each well. The reactions were […] by adding cofactor reduced nicotinamide adenine dinucleotide phosphate (NADPH) to the reaction well containing microsomes and compounds. Negative controls received buffer only. Immediately after reactions started, 0-min aliquots were promptly collected and mixed in a separate well with ice cold acetonitrile to quench the reactions. The remainder of the reaction volume was incubated at 37°C with shaking. An additional aliquot was collected at 60 min after the start of the reaction and promptly quenched with ice cold acetonitrile. Samples were vortexed and centrifuged at 3,500 rpm for 10 min. The amount of compound in the supernatant was determined by liquid chromatography–tandem mass spectrometry (LC/MS/MS) (Thermo Fischer Scientific, San Jose, CA, USA), and the percent of parent compound remaining after 60 min was calculated. Results are the mean of each reaction triplicate, normalized to the internal standard, and expressed as the percent of compound remaining after the incubation time.
(§3) Structures that are active in vitro may not be potent in vivo due to their susceptibility to metabolism in the body. We then thoroughly examined the liver microsomal metabolic stability of DMC-HA across three different species (Table 3). […] In addition, the half-life of DMC-HA in human microsome is generally two to three times longer than those in mice and rats. Collectively, the in vitro liver microsomal stability of DMC-HA is favorable, guaranteeing its further in vivo studies.

[9] = Hepatic microsome stability assay, mice; format: in vitro ADME; conditions: mouse liver microsomes, NADPH, 37°C, pH 7.4
Method: as §2, §3

[10] = Hepatic microsome stability assay, rat; format: in vitro ADME; conditions: rat liver microsomes, NADPH, 37°C, pH 7.4
Method: as §2, §3

[11] = target: HDAC1 (Homo sapiens, UniProt Q13547); experiment: HDACs inhibition assay, HDAC1
Method: (§4) The inhibition assays for HDACs were carried out according to standard protocols. […] The reaction was stopped by the addition of 45 μl of 100 mM HEPES (pH 7.5) and 0.08% sodium dodecyl sulfate (SDS). The substrate and the product were then separated electrophoretically using a LabChip 3000 system (Caliper Life Sciences, Hopkinton, MA) with blue laser excitation and green fluorescence detection.

[12] = target: HDAC5 (Homo sapiens, UniProt Q9UQL6); experiment: HDACs inhibition assay, HDAC5
Method: as §4

[13] = target: HDAC8 (Homo sapiens, UniProt Q9BY41); experiment: HDACs inhibition assay, HDAC8
HDAC8, sequence (Q9BY41 whole entry): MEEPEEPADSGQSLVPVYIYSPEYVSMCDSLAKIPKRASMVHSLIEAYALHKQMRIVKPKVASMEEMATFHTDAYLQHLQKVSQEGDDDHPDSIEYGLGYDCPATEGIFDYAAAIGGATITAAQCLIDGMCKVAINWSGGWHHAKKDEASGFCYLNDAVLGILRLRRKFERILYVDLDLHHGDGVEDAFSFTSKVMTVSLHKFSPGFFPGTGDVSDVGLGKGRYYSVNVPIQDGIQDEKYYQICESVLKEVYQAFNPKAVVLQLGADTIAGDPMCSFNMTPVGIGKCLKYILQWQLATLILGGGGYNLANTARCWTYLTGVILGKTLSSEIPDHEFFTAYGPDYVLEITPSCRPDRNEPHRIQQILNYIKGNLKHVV
Method: as §4

HDAC5, sequence (Q9UQL6 whole entry): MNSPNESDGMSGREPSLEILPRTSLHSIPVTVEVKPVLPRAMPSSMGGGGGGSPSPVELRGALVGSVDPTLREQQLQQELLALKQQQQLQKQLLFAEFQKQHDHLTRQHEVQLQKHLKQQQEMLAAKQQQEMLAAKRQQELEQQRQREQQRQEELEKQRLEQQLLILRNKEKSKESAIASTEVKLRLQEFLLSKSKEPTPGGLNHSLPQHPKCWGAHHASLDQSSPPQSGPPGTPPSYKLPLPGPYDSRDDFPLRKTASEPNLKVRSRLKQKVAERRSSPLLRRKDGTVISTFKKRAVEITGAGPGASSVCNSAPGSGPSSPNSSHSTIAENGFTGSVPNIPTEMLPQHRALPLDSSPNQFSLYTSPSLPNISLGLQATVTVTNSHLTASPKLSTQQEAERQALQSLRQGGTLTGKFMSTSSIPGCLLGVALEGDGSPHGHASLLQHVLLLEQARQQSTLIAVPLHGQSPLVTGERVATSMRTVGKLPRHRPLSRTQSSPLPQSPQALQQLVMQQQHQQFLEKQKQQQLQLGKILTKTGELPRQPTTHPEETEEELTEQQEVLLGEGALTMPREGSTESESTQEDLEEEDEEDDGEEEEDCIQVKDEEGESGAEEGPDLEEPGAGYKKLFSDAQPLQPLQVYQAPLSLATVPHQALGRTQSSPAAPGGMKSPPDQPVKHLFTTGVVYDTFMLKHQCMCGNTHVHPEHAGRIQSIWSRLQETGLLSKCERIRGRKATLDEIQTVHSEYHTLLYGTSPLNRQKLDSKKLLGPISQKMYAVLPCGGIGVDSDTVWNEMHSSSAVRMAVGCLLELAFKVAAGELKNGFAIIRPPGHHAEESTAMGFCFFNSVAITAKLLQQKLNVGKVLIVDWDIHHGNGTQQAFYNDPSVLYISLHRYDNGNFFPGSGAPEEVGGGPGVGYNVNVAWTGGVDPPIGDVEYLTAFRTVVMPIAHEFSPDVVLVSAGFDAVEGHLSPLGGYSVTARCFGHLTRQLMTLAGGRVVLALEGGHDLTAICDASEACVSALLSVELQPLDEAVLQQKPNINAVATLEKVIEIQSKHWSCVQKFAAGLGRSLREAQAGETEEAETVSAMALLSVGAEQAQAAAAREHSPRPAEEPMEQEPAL
HDAC1, sequence (Q13547 whole entry): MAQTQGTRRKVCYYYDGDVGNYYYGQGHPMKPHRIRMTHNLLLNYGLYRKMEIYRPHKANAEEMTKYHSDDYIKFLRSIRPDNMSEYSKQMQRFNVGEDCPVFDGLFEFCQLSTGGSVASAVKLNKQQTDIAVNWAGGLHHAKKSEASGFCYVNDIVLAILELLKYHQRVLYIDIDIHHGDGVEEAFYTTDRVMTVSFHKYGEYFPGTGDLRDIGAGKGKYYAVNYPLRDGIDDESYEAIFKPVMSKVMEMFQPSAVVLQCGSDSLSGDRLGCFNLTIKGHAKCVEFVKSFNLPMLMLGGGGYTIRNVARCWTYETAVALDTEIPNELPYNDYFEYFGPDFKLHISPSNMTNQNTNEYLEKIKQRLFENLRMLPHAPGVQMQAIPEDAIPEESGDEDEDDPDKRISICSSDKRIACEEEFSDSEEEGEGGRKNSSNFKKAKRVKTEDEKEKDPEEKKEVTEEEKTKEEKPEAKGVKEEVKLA

Molecule COc1cc(/C=C/C(=O)CC(=O)/C=C/c2ccc(/C=C/C(=O)NO)cc2)ccc1O [DMC-HA] has an IC50 [1] of 3220 ± 300 nM, an IC50 [2] of 2990 ± 480 nM and an IC50 [3] of 2780 ± 810 nM. For the same molecule, the IC50 [4] was 3380 ± 290 nM, the “acetylation of histone H3, time dependence” value ([5]; 5 μM, different times) was “increased in a time-dependent manner” and the “acetylation of histone H3, dose dependence” value ([5]; various concentrations, 24 h) was “dose dependently increased the acetylation of histone H3”. The “cells in G2/M phase” value [6] was 14.5%, the total apoptotic cells [7] was 90.0% and the “Human Liver Microsomal Stability T1/2” value [8] was 91.6 min. The microsomal CLint [8] was 17.5 µL/min/mg, the “Mice Liver Microsomal Stability T1/2” value [9] was 32.7 min and the microsomal CLint [9] was 43.2 µL/min/mg. For the same molecule, the “Rat Liver Microsomal Stability T1/2” value [10] was 40.7 min, the microsomal CLint [10] was 34.2 µL/min/mg and the IC50 [11] was 510 nM. For the same molecule, the IC50 [12] was greater than 10000 nM and the IC50 [13] was 2930 nM.
